Experiment: Phase I clinical trial: treatment-emergent adverse events (patients, n (%)), dose limiting toxicity, MTD
Assay type: in vivo
[1] = Table 8: Total QD Dosing (N = 25)
[2] = Table 8: Total QDx3d QW (N = 14)

Procedure: Safety, maximum tolerated dose (MTD), pharmacokinetics (PK) and preliminary antitumor activity were evaluated.
Pharmacodynamic (PD) endpoints were evaluated in surrogate (peripheral blood cells [PBCs], skin) and tumor tissues for the phosphorylation of TORC1-dependent markers (4EBP1/S6), and TORC2-dependent markers (AKT/PRAS40).

CC(C)n1nc(-c2ccc3oc(N)nc3c2)c2c(N)ncnc21 [compound A]
reversible: adverse events (AEs) reported: reversibility (3 intermittent dosing regimens)
Grade (G) 3 asthenia and G3 mucositis: Dose limiting toxicities (40 mg QW, 20 mg QDx3d QW and 13 mg QDxSd QW cohorts)
1 (4%): Grade 3 or greater TEAE: Abdominal pain upper (QD Dosing (N = 25)) | Grade 3 or greater TEAE: Anaemia (QD Dosing (N = 25)) | Grade 3 or greater TEAE: Catheter related infection (QD Dosing (N = 25)) | Grade 3 or greater TEAE: Cellulitis (QD Dosing (N = 25)) | Grade 3 or greater TEAE: Diarrhoea (QD Dosing (N = 25)) | Grade 3 or greater TEAE: Enterocutaneous fistula (QD Dosing (N = 25)) | Grade 3 or greater TEAE: Pancreatitis acute (QD Dosing (N = 25)) | Grade 3 or greater TEAE: Pleural effusion (QD Dosing (N = 25)) | Grade 3 or greater TEAE: Somnolence (QD Dosing (N = 25)) | Coagulopathy [1] | Confusional state [1] | Cough [1] | Dizziness [1] | Dyspnoea exertional [1] | Eye infection [1] | Gastritis [1] | Gravitational oedema [1] | Hypocalcaemia [1] | Insomnia [1] | Orthostatic hypotension [1] | Panniculitis [1] | Polyuria [1] | Skin discolouration [1] | Skin exfoliation [1] | Weight decreased [1]
4 (16%): Grade 3 or greater TEAE: Hyperglycaemia (QD Dosing (N = 25))
7 (50%): Patients Reporting at Least One Grade 3 or Greater TEAE (QDx3d QW (N = 14))
2 (8%): Grade 3 or greater TEAE: Hypokalaemia (QD Dosing (N = 25)) | Grade 3 or greater TEAE: Hyponatraemia (QD Dosing (N = 25)) | Grade 3 or greater TEAE: Lymphopenia (QD Dosing (N = 25)) | Grade 3 or greater TEAE: Pruritus (QD Dosing (N = 25)) | Grade 3 or greater TEAE: Thrombocytopenia (QD Dosing (N = 25))
7 (28%): Grade 3 or greater TEAE: Rash (QD Dosing (N = 25))
3 (20%): Patients Reporting at Least One Grade 3 or Greater TEAE (QW Dosing (N = 15))
0 (0%): Grade 3 or greater TEAE: Aspartate aminotransferase increased (QD Dosing (N = 25)) | Grade 3 or greater TEAE: Asthenia (QD Dosing (N = 25)) | Grade 3 or greater TEAE: Disease progression (QD Dosing (N = 25)) | Grade 3 or greater TEAE: Gamma-glutamyltransferase increased (QD Dosing (N = 25)) | Grade 3 or greater TEAE: Gastroenteritis (QD Dosing (N = 25)) | Grade 3 or greater TEAE: Rash macular (QD Dosing (N = 25)) | Grade 3 or greater TEAE: Urinary tract infection (QD Dosing (N = 25)) | Grade 3 or greater TEAE: Abdominal pain upper (QDx3d QW (N = 14)) | Grade 3 or greater TEAE: Anaemia (QDx3d QW (N = 14)) | Grade 3 or greater TEAE: Aspartate aminotransferase increased (QDx3d QW (N = 14)) | Grade 3 or greater TEAE: Catheter related infection (QDx3d QW (N = 14)) | Grade 3 or greater TEAE: Cellulitis (QDx3d QW (N = 14)) | Grade 3 or greater TEAE: Enterocutaneous fistula (QDx3d QW (N = 14)) | Grade 3 or greater TEAE: Hypokalaemia (QDx3d QW (N = 14)) | Grade 3 or greater TEAE: Hyponatraemia (QDx3d QW (N = 14)) | Grade 3 or greater TEAE: Pancreatitis acute (QDx3d QW (N = 14)) | Grade 3 or greater TEAE: Pleural effusion (QDx3d QW (N = 14)) | Grade 3 or greater TEAE: Pruritus (QDx3d QW (N = 14)) | Grade 3 or greater TEAE: Rash (QDx3d QW (N = 14)) | Grade 3 or greater TEAE: Somnolence (QDx3d QW (N = 14)) | Grade 3 or greater TEAE: Thrombocytopenia (QDx3d QW (N = 14)) | Grade 3 or greater TEAE: Abdominal pain upper (QDx5d QW (N = 6)) | Grade 3 or greater TEAE: Anaemia (QDx5d QW (N = 6)) | Grade 3 or greater TEAE: Aspartate aminotransferase increased (QDx5d QW (N = 6)) | Grade 3 or greater TEAE: Asthenia (QDx5d QW (N = 6)) | Grade 3 or greater TEAE: Catheter related infection (QDx5d QW (N = 6)) | Grade 3 or greater TEAE: Cellulitis (QDx5d QW (N = 6)) | Grade 3 or greater TEAE: Diarrhoea (QDx5d QW (N = 6)) | Grade 3 or greater TEAE: Disease progression (QDx5d QW (N = 6)) | Grade 3 or greater TEAE: Enterocutaneous fistula (QDx5d QW (N = 6)) | Grade 3 or greater TEAE: Gamma-glutamyltransferase increased (QDx5d QW (N = 6)) | Grade 3 or greater TEAE: Gastroenteritis (QDx5d QW (N = 6)) | Grade 3 or greater TEAE: Hyperglycaemia (QDx5d QW (N = 6)) | Grade 3 or greater TEAE: Hypokalaemia (QDx5d QW (N = 6)) | Grade 3 or greater TEAE: Hyponatraemia (QDx5d QW (N = 6)) | Grade 3 or greater TEAE: Lymphopenia (QDx5d QW (N = 6)) | Grade 3 or greater TEAE: Pancreatitis acute (QDx5d QW (N = 6)) | Grade 3 or greater TEAE: Pleural effusion (QDx5d QW (N = 6)) | Grade 3 or greater TEAE: Pruritus (QDx5d QW (N = 6)) | Grade 3 or greater TEAE: Rash (QDx5d QW (N = 6)) | Grade 3 or greater TEAE: Rash macular (QDx5d QW (N = 6)) | Grade 3 or greater TEAE: Somnolence (QDx5d QW (N = 6)) | Grade 3 or greater TEAE: Thrombocytopenia (QDx5d QW (N = 6)) | Grade 3 or greater TEAE: Urinary tract infection (QDx5d QW (N = 6)) | Patients Reporting at Least One Grade 3 or Greater TEAE (QDx5d QW (N = 6)) | Grade 3 or greater TEAE: Abdominal pain upper (QW Dosing (N = 15)) | Grade 3 or greater TEAE: Anaemia (QW Dosing (N = 15)) | Grade 3 or greater TEAE: Asthenia (QW Dosing (N = 15)) | Grade 3 or greater TEAE: Catheter related infection (QW Dosing (N = 15)) | Grade 3 or greater TEAE: Cellulitis (QW Dosing (N = 15)) | Grade 3 or greater TEAE: Disease progression (QW Dosing (N = 15)) | Grade 3 or greater TEAE: Enterocutaneous fistula (QW Dosing (N = 15)) | Grade 3 or greater TEAE: Gastroenteritis (QW Dosing (N = 15)) | Grade 3 or greater TEAE: Hyperglycaemia (QW Dosing (N = 15)) | Grade 3 or greater TEAE: Hypokalaemia (QW Dosing (N = 15)) | Grade 3 or greater TEAE: Hyponatraemia (QW Dosing (N = 15)) | Grade 3 or greater TEAE: Pancreatitis acute (QW Dosing (N = 15)) | Grade 3 or greater TEAE: Pleural effusion (QW Dosing (N = 15)) | Grade 3 or greater TEAE: Pruritus (QW Dosing (N = 15)) | Grade 3 or greater TEAE: Rash (QW Dosing (N = 15)) | Grade 3 or greater TEAE: Rash macular (QW Dosing (N = 15)) | Grade 3 or greater TEAE: Somnolence (QW Dosing (N = 15)) | Grade 3 or greater TEAE: Thrombocytopenia (QW Dosing (N = 15)) | Grade 3 or greater TEAE: Urinary tract infection (QW Dosing (N = 15)) | Catheter site inflammation [1] | Catheter site pain [1] | DIARRHEA [1] | Fatigue [1] | Headache [1] | Hyperbilirubinaemia [1] | Hypertransaminasaemia [1] | Hypertriglyceridaemia [1] | Hypomagnesaemia [1] | Hypotension [1] | Low fever [1] | Malaise [1] | Nausea [1] | Oral discomfort [1] | Palmar-plantar erythrodysaesthesia syndrome [1] | Platelet count decreased [1] | Pyrexia [1] | Rash [1] | Rash macular [1] | Urinary tract infection [1] | Urine tract infection [1] | Vomiting [1] | WEAKNESS [1] | Coagulopathy [2] | Confusional state [2] | Cough [2] | DIARRHEA [2] | Dizziness [2] | Dyspnoea exertional [2] | Eye infection [2] | Gastritis [2] | Gravitational oedema [2] | Hypocalcaemia [2] | Insomnia [2] | Malaise [2] | Nausea [2] | Oral discomfort [2] | Orthostatic hypotension [2] | Panniculitis [2] | Polyuria [2] | Rash [2] | Skin discolouration [2] | Skin exfoliation [2] | Urine tract infection [2] | Vomiting [2] | WEAKNESS [2]
1 (7%): Grade 3 or greater TEAE: Asthenia (QDx3d QW (N = 14)) | Grade 3 or greater TEAE: Diarrhoea (QDx3d QW (N = 14)) | Grade 3 or greater TEAE: Disease progression (QDx3d QW (N = 14)) | Grade 3 or greater TEAE: Gamma-glutamyltransferase increased (QDx3d QW (N = 14)) | Grade 3 or greater TEAE: Gastroenteritis (QDx3d QW (N = 14)) | Grade 3 or greater TEAE: Hyperglycaemia (QDx3d QW (N = 14)) | Grade 3 or greater TEAE: Lymphopenia (QDx3d QW (N = 14)) | Grade 3 or greater TEAE: Rash macular (QDx3d QW (N = 14)) | Grade 3 or greater TEAE: Urinary tract infection (QDx3d QW (N = 14)) | Grade 3 or greater TEAE: Aspartate aminotransferase increased (QW Dosing (N = 15)) | Grade 3 or greater TEAE: Diarrhoea (QW Dosing (N = 15)) | Grade 3 or greater TEAE: Gamma-glutamyltransferase increased (QW Dosing (N = 15)) | Grade 3 or greater TEAE: Lymphopenia (QW Dosing (N = 15)) | Catheter site inflammation [2] | Catheter site pain [2] | Fatigue [2] | Headache [2] | Hyperbilirubinaemia [2] | Hypertransaminasaemia [2] | Hypertriglyceridaemia [2] | Hypomagnesaemia [2] | Hypotension [2] | Low fever [2] | Palmar-plantar erythrodysaesthesia syndrome [2] | Platelet count decreased [2] | Pyrexia [2] | Rash macular [2] | Urinary tract infection [2]
15 (60%): Patients Reporting at Least One Grade 3 or Greater TEAE (QD Dosing (N = 25))
1 (2%): Catheter site inflammation (Table 8: Total (N = 60)) | Catheter site pain (Table 8: Total (N = 60)) | Coagulopathy (Table 8: Total (N = 60)) | Confusional state (Table 8: Total (N = 60)) | Cough (Table 8: Total (N = 60)) | DIARRHEA (Table 8: Total (N = 60)) | Dizziness (Table 8: Total (N = 60)) | Dyspnoea exertional (Table 8: Total (N = 60)) | Eye infection (Table 8: Total (N = 60)) | Fatigue (Table 8: Total (N = 60)) | Gastritis (Table 8: Total (N = 60)) | Gravitational oedema (Table 8: Total (N = 60)) | Headache (Table 8: Total (N = 60)) | Hyperbilirubinaemia (Table 8: Total (N = 60)) | Hypertransaminasaemia (Table 8: Total (N = 60)) | Hypertriglyceridaemia (Table 8: Total (N = 60)) | Hypocalcaemia (Table 8: Total (N = 60)) | Hypomagnesaemia (Table 8: Total (N = 60)) | Hypotension (Table 8: Total (N = 60)) | Insomnia (Table 8: Total (N = 60)) | Low fever (Table 8: Total (N = 60)) | Malaise (Table 8: Total (N = 60)) | Nausea (Table 8: Total (N = 60)) | Oral discomfort (Table 8: Total (N = 60)) | Orthostatic hypotension (Table 8: Total (N = 60)) | Palmar-plantar erythrodysaesthesia syndrome (Table 8: Total (N = 60)) | Panniculitis (Table 8: Total (N = 60)) | Platelet count decreased (Table 8: Total (N = 60)) | Polyuria (Table 8: Total (N = 60)) | Pyrexia (Table 8: Total (N = 60)) | Rash (Table 8: Total (N = 60)) | Rash macular (Table 8: Total (N = 60)) | Skin discolouration (Table 8: Total (N = 60)) | Skin exfoliation (Table 8: Total (N = 60)) | Urinary tract infection (Table 8: Total (N = 60)) | Urine tract infection (Table 8: Total (N = 60)) | Vomiting (Table 8: Total (N = 60)) | WEAKNESS (Table 8: Total (N = 60)) | Weight decreased (Table 8: Total (N = 60))
6%: lymphopenia, only reported Grade 3 or higher AE possibly related (3 regimens)
